From patent US12150996B2, “Polymeric prodrugs and subcutaneous and/or intramuscular administration thereof” (priority 2017, dated 2024)

Experiments:
SC tissue = assay: SC toxicity at the injection site (Example 10)
Description: The same studies were carried out with a polymer according to the invention coupled with Cyanine 5.5.

[1] = Pharmacokinetics and biodistribution of radiolabelled PTX; details: mice, liver, kidneys, spleen, lungs; radiolabel
Description: 7 week old female BALB/c OlaHsd mice (˜22 g; Envigo, France) were used. […] Each group consisted of 40 mice divided into 10 different times (0.25 h, 0.5 h, 1 h, 2 h, 4 h, 7 h, 24 h, 48 h, 96 h and 144 h) leading to 4 mice per group. […] Livers, kidneys, spleens, lungs and some SC tissue at the injection site were also collected. All the samples were stored in a freezer (−20° C.) for a maximum of one week before analysis. For the radioactivity count, approximately 100 μl of plasma and 100 mg of each organ/tissue were removed and weighed with precision. The organs were first dissolved by adding 1 ml of soluble solution (PerkinElmer, USA) and the samples were placed overnight in an oven at 60° C. They were then whitewashed by twice adding 100 μL of 30% H2O2 (weight/volume) and heated for 30 min at 60° C. in an oven. Finally, the treated plasma and organ samples were mixed with Hionic-FluorUltimagold (PerkinElmer, USA) and the radioactivity was measured with a versatile LS 6500 scintillation counter (Beckman Coulter).
Pharmacokinetic and biodistribution studies were also conducted for the polyacrylamide compound containing paclitaxel. Paclitaxel was radiolabelled and coupled to the polymer by an ester link (stable link) so that it could be followed in the blood and in various organs (liver, lungs, kidneys, spleen, SC tissue). […]

Molecule	SC toxicity (necrosis of SC tissue) (SC tissue; in vivo, sc, 0.8 mg/kg)	Elimination (biodistribution) [1]	Toxicity at the injection site (SC tissue; SC administration at 30 mg/kg (paclitaxel equivalent) once a day for 4 days, FIG. 12)
Cyanine 5.5	very necrotizing for SC tissue		
CC(=O)O[C@H]1C(=O)[C@@]2(C)[C@H]([C@H](OC(=O)c3ccccc3)[C@]3(O)C[C@H](OC(=O)[C@H](O)[C@@H](NC(=O)c4ccccc4)c4ccccc4)C(C)=C1C3(C)C)[C@]1(OC(C)=O)CO[C@@H]1C[C@@H]2O [paclitaxel]		predominantly hepatic elimination	local toxicity effects
